Broadly, the MIC80 is the lowest concentration that inhibits either 80% of growth or 80% of the strains tested, depending on the study.

The values below come from ChEMBL document CHEMBL6092180 (Eur J Med Chem, 2024).

Type in all cases: functional
For one assay, the system named is Candida parapsilosis. The assay can be described thus: Antifungal activity against Candida parapsilosis GIM 2.190 assessed as inhibition of fungal growth by CLSI M27-A3 guidelines based method. Conditions: Lodderomyces parapsilosis.
In another assay the test system is Pichia kudriavzevii. As to the kind of experiment: Antifungal activity against Candida krusei GIM 2.1 assessed as inhibition of fungal growth by CLSI M27-A3 guidelines based method.
The subject of the next assay is Candida tropicalis. The assay can be described thus: Antifungal activity against Candida tropicalis GIM 2.183 assessed as inhibition of fungal growth by CLSI M27-A3 guidelines based method.
The subject of the next assay is Nakaseomyces glabratus. As to the kind of experiment: Antifungal activity against Candida glabrata assessed as inhibition of fungal growth by CLSI M27-A3 guidelines based method.
The test system of assay [1] is Candida albicans. As to the kind of experiment: Antifungal activity against Candida albicans SC5314 assessed as inhibition of fungal growth by CLSI M27-A3 guidelines based method.
The test system of assay [2] is Candida albicans. The assay can be described thus: Antifungal activity against Candida albicans GIM 2.194 assessed as inhibition of fungal growth by CLSI M27-A3 guidelines based method.
Another assay concerns Cryptococcus neoformans. As to the kind of experiment: Antifungal activity against Cryptococcus neoformans CGMCC 2.3161 assessed as inhibition of fungal growth by CLSI M27-A3 guidelines based method.

The structures appear in SMILES notation. In brackets after ≈: the same amount, converted by molar mass.

As to `CN(Cc1ccc(C#Cc2ccc(-c3ccccc3)cc2)cc1)CC(O)(Cn1cncn1)c1ccc(F)cc1F` (stereo not drawn), the MIC80 stood at 0.05 µg/mL (≈ 0.0935 µM) with Candida parapsilosis; 0.2 µg/mL (≈ 0.374 µM) with Pichia kudriavzevii; 0.05 µg/mL (≈ 0.0935 µM) with Candida tropicalis; 0.4 µg/mL (≈ 0.748 µM) in the assay with Nakaseomyces glabratus; 0.05 µg/mL (≈ 0.0935 µM) with Candida albicans [1]; 0.013 µg/mL (≈ 0.0243 µM) with Candida albicans [2]. The MIC80 with Cryptococcus neoformans was 0.05 µg/mL (≈ 0.0935 µM).
As to `CN(Cc1ccc(C#Cc2ccc(F)cc2)cc1)CC(O)(Cn1cncn1)c1ccc(F)cc1F` (stereo not drawn), the MIC80 amounted to 0.006 µg/mL (≈ 0.0126 µM) in the assay with Candida parapsilosis; 0.05 µg/mL (≈ 0.105 µM) in the assay on Pichia kudriavzevii; 0.013 µg/mL (≈ 0.0273 µM) with Candida tropicalis; 0.03 µg/mL (≈ 0.063 µM) in the assay on Nakaseomyces glabratus; 0.006 µg/mL (≈ 0.0126 µM) in the assay on Candida albicans [1]; 0.006 µg/mL (≈ 0.0126 µM) with Candida albicans [2]. Also, the MIC80 in the assay with Cryptococcus neoformans amounted to 0.013 µg/mL (≈ 0.0273 µM).
On to `CN(Cc1ccc(C#Cc2ccc(Cl)cc2F)cc1)CC(O)(Cn1cncn1)c1ccc(F)cc1F` (stereo not drawn), for which the MIC80 in the assay on Candida parapsilosis was determined as 0.006 µg/mL (≈ 0.0117 µM); in the assay on Pichia kudriavzevii, 0.01 µg/mL (≈ 0.0196 µM); with Candida tropicalis it was 0.006 µg/mL (≈ 0.0117 µM); with Nakaseomyces glabratus it was 0.03 µg/mL (≈ 0.0587 µM); in the assay on Candida albicans [1], 0.006 µg/mL (≈ 0.0117 µM); in the assay on Candida albicans [2] it was 0.006 µg/mL (≈ 0.0117 µM). Besides, the MIC80 in the assay with Cryptococcus neoformans was 0.025 µg/mL (≈ 0.0489 µM).
For `CC(=O)c1ccc(C#Cc2ccc(CN(C)CC(O)(Cn3cncn3)c3ccc(F)cc3F)cc2)cc1` (stereo not drawn), the MIC80 was 0.006 µg/mL (≈ 0.012 µM) in the assay on Candida parapsilosis; 0.03 µg/mL (≈ 0.0599 µM) in the assay with Pichia kudriavzevii; 0.006 µg/mL (≈ 0.012 µM) in the assay with Candida tropicalis; 0.03 µg/mL (≈ 0.0599 µM) in the assay with Nakaseomyces glabratus; 0.006 µg/mL (≈ 0.012 µM) in the assay on Candida albicans [1]; 0.006 µg/mL (≈ 0.012 µM) with Candida albicans [2]. The MIC80 with Cryptococcus neoformans stood at 0.006 µg/mL (≈ 0.012 µM).
Consider `CCOC(=O)c1ccc(C#Cc2ccc(CN(C)CC(O)(Cn3cncn3)c3ccc(F)cc3F)cc2)cc1` (stereo not drawn), for which the MIC80 was 0.006 µg/mL (≈ 0.0113 µM) in the assay on Candida parapsilosis; 0.2 µg/mL (≈ 0.377 µM) with Pichia kudriavzevii; 0.013 µg/mL (≈ 0.0245 µM) in the assay with Candida tropicalis; 0.1 µg/mL (≈ 0.188 µM) in the assay on Nakaseomyces glabratus; 0.013 µg/mL (≈ 0.0245 µM) with Candida albicans [1]; 0.013 µg/mL (≈ 0.0245 µM) in the assay with Candida albicans [2]. Further, the MIC80 with Cryptococcus neoformans amounted to 0.025 µg/mL (≈ 0.0471 µM).
For the compound `CN(Cc1ccc(C#Cc2ccc(C#N)cc2)cc1)CC(O)(Cn1cncn1)c1ccc(F)cc1F` (stereo not drawn), the MIC80 with Candida parapsilosis was determined as 0.006 µg/mL (≈ 0.0124 µM); in the assay with Pichia kudriavzevii, 0.1 µg/mL (≈ 0.207 µM); in the assay on Candida tropicalis it was 0.013 µg/mL (≈ 0.0269 µM); with Nakaseomyces glabratus, 0.1 µg/mL (≈ 0.207 µM); with Candida albicans [1], 0.013 µg/mL (≈ 0.0269 µM); with Candida albicans [2] it was 0.006 µg/mL (≈ 0.0124 µM). Further, the MIC80 in the assay with Cryptococcus neoformans was determined as 0.05 µg/mL (≈ 0.103 µM).
For the compound `CN(Cc1ccc(C#Cc2cc(F)c(Cl)cc2F)cc1)CC(O)(Cn1cncn1)c1ccc(F)cc1F` (stereo not drawn), the MIC80 was determined as 0.006 µg/mL (≈ 0.0113 µM) with Candida parapsilosis; 0.01 µg/mL (≈ 0.0189 µM) with Pichia kudriavzevii; 0.006 µg/mL (≈ 0.0113 µM) with Candida tropicalis; 0.01 µg/mL (≈ 0.0189 µM) with Nakaseomyces glabratus; 0.006 µg/mL (≈ 0.0113 µM) in the assay with Candida albicans [1]; 0.006 µg/mL (≈ 0.0113 µM) in the assay on Candida albicans [2]. The MIC80 with Cryptococcus neoformans was 0.025 µg/mL (≈ 0.0473 µM).
Take `CN(Cc1ccc(C#Cc2ccccc2F)cc1)CC(O)(Cn1cncn1)c1ccc(F)cc1F` (stereo not drawn): the MIC80 with Candida parapsilosis came to 0.006 µg/mL (≈ 0.0126 µM); in the assay on Pichia kudriavzevii, 0.01 µg/mL (≈ 0.021 µM); in the assay with Candida tropicalis it was 0.006 µg/mL (≈ 0.0126 µM); with Nakaseomyces glabratus, 0.05 µg/mL (≈ 0.105 µM); in the assay on Candida albicans [1], 0.006 µg/mL (≈ 0.0126 µM); with Candida albicans [2] it was 0.013 µg/mL (≈ 0.0273 µM). For the same compound, in the assay on Cryptococcus neoformans, the MIC80 came out at 0.006 µg/mL (≈ 0.0126 µM).
In the case of `Cc1ccccc1C#Cc1ccc(CN(C)CC(O)(Cn2cncn2)c2ccc(F)cc2F)cc1` (stereo not drawn), the MIC80 in the assay with Candida parapsilosis is 0.013 µg/mL (≈ 0.0275 µM); with Pichia kudriavzevii, 0.05 µg/mL (≈ 0.106 µM); in the assay on Candida tropicalis, 0.006 µg/mL (≈ 0.0127 µM); with Nakaseomyces glabratus, 0.1 µg/mL (≈ 0.212 µM); with Candida albicans [1], 0.013 µg/mL (≈ 0.0275 µM); in the assay on Candida albicans [2], 0.006 µg/mL (≈ 0.0127 µM). Moreover, the MIC80 with Cryptococcus neoformans turned out to be 0.025 µg/mL (≈ 0.0529 µM).
In the case of `CN(Cc1ccc(C#Cc2cccnc2)cc1)CC(O)(Cn1cncn1)c1ccc(F)cc1F` (stereo not drawn), the MIC80 with Candida parapsilosis is 0.05 µg/mL (≈ 0.109 µM); in the assay on Pichia kudriavzevii, 0.2 µg/mL (≈ 0.435 µM); in the assay with Candida tropicalis it was 0.013 µg/mL (≈ 0.0283 µM); in the assay on Nakaseomyces glabratus, 0.8 µg/mL (≈ 1.74 µM); with Candida albicans [1] it was 0.013 µg/mL (≈ 0.0283 µM); in the assay on Candida albicans [2], 0.025 µg/mL (≈ 0.0544 µM). The MIC80 with Cryptococcus neoformans is 0.05 µg/mL (≈ 0.109 µM).
Take `CN(Cc1ccc(C#Cc2ccc([N+](=O)[O-])cc2F)cc1)CC(O)(Cn1cncn1)c1ccc(F)cc1F` (stereo not drawn): the MIC80 is 0.006 µg/mL (≈ 0.0115 µM) in the assay with Candida parapsilosis; 0.05 µg/mL (≈ 0.0959 µM) in the assay on Pichia kudriavzevii; 0.006 µg/mL (≈ 0.0115 µM) in the assay with Candida tropicalis; 0.03 µg/mL (≈ 0.0575 µM) with Nakaseomyces glabratus; 0.006 µg/mL (≈ 0.0115 µM) in the assay with Candida albicans [1]; 0.006 µg/mL (≈ 0.0115 µM) in the assay with Candida albicans [2]. Moreover, the MIC80 in the assay with Cryptococcus neoformans was 0.025 µg/mL (≈ 0.0479 µM).
Regarding `CN(Cc1ccc(C#Cc2ccc(C(F)(F)F)cc2)cc1)CC(O)(Cn1cncn1)c1ccc(F)cc1F` (stereo not drawn), the MIC80 is 0.1 µg/mL (≈ 0.19 µM) in the assay on Candida parapsilosis; 0.2 µg/mL (≈ 0.38 µM) with Pichia kudriavzevii; 0.05 µg/mL (≈ 0.095 µM) in the assay on Candida tropicalis; 0.2 µg/mL (≈ 0.38 µM) in the assay with Nakaseomyces glabratus; 0.1 µg/mL (≈ 0.19 µM) in the assay with Candida albicans [1]; 0.025 µg/mL (≈ 0.0475 µM) in the assay with Candida albicans [2]. Moreover, the MIC80 with Cryptococcus neoformans turned out to be 0.05 µg/mL (≈ 0.095 µM).
Turning to `CN(Cc1ccc(C#Cc2cc(F)c(F)cc2F)cc1)CC(O)(Cn1cncn1)c1ccc(F)cc1F` (stereo not drawn), the MIC80 in the assay on Candida parapsilosis came to 0.006 µg/mL (≈ 0.0117 µM); with Pichia kudriavzevii, 0.03 µg/mL (≈ 0.0585 µM); in the assay on Candida tropicalis it was 0.006 µg/mL (≈ 0.0117 µM); with Nakaseomyces glabratus, 0.01 µg/mL (≈ 0.0195 µM); in the assay on Candida albicans [1], 0.006 µg/mL (≈ 0.0117 µM); with Candida albicans [2], 0.006 µg/mL (≈ 0.0117 µM). For the same compound, the MIC80 in the assay on Cryptococcus neoformans is 0.013 µg/mL (≈ 0.0254 µM).
For the compound `CN(Cc1ccc(C#Cc2cccc(F)c2)cc1)CC(O)(Cn1cncn1)c1ccc(F)cc1F` (stereo not drawn), the MIC80 in the assay with Candida parapsilosis was 0.006 µg/mL (≈ 0.0126 µM); in the assay with Pichia kudriavzevii, 0.01 µg/mL (≈ 0.021 µM); in the assay with Candida tropicalis it was 0.006 µg/mL (≈ 0.0126 µM); in the assay on Nakaseomyces glabratus, 0.05 µg/mL (≈ 0.105 µM); in the assay on Candida albicans [1], 0.006 µg/mL (≈ 0.0126 µM); in the assay with Candida albicans [2] it was 0.013 µg/mL (≈ 0.0273 µM). In addition, the MIC80 with Cryptococcus neoformans turned out to be 0.006 µg/mL (≈ 0.0126 µM).
